Laboratory results published in patent US11000601B2, “Conjugated biological molecules, pharmaceutical compositions and methods” (OBI Pharma, Inc., priority 2016, dated 2021).
Several values for one entry are separate records, joined by “and”; a condition that tells them apart may be missing. Equal values may be shown once. Square brackets hold non-standard residues; d marks the D form. Peptide text beside a SMILES is read from it. * marks the point of attachment. Dolaproine = CO[C@@H]([C@@H]1CCCN1)[C@@H](C)C(=O)O; Dil = CC[C@H](C)[C@H](NC)[C@@H](CC(=O)O)OC; X1 = C[C@@H](N*)[C@@H](O)c1ccccc1; NMeV = CN[C@H](C(=O)O)C(C)C

What was measured:
[1] = test system: MCF-7 (ATCC HTB-22) human breast adenocarcinoma; experiment: Xenograft tumor model of human breast adenocarcinoma MCF-7 in nude mice: tumor volume, T/C; assay type: in vivo; settings: for % T/C (tumor volume, treatment/control) / Tumor Volume, Mean / Tumor Volume, individual animals No. 1-6: Gr. 11, 0.057 mg/kg × 6, IV, once weekly
Protocol: (§1) In a xenograft tumor model of human breast adenocarcinoma, MCF-7 (ATCC HTB-22) cells were subcutaneously (SC) implanted (2.0×10^7 cells in 1:1 matrigel/media mixture at 0.2 mL/mouse) into the right flank of female athymic (nu/nu) nude mice. Supplemental injections of estradiol cyclopentyl propionate (100 μg/mouse) were administered subcutaneously between the scapulae twice weekly, from one week prior to cell implantation to study completion. Tumor-implanted mice were divided into eleven treatment groups, each group containing six animals, and test agent administrations were initiated one day after cell implantation (denoted as Day 1). 3.1 Test Substances and Dosing Pattern
(§2) Two control groups received intravenous injections of vehicle (25 mM Sodium Citrate, pH 6.5+100 mM NaCl) once weekly for either six weeks (group 1) or two weeks (group 2).
Human breast adenocarcinoma tumor cell line, MCF-7 (ATCC HTB-22, breast adenocarcinoma), was provided by the Sponsor. The tumor cells were prepared and cultured by the Sponsor (1×10^8 cells/mL), and 0.2 mL MCF-7 tumor cell inoculum containing 2×10^7 cells (mixture of matrigel and medium; 1:1) was implanted subcutaneously in the right flank of each mouse.
(§3) Female (nu/nu) nude mice aged 6-7 weeks obtained from BioLasco Taiwan (under Charles River Laboratories Licensee) were used. The animals were housed in individually ventilated cages (IVG, 36 Mini Isolator System). The allocation for 3-5 animals was 27×20×14 in cm. All animals were maintained in a hygienic environment under controlled temperature (20-24° C.) and humidity (30-70%) with 12-hour light/dark cycle. Free access to standard lab diet (Oriental Yeast Co., Ltd., Japan) and autoclaved tap water were granted. All aspects of this work including housing, experimentation, and animal disposal were performed in general accordance with the “Guide for the Care and Use of Laboratory Animals: Eighth Edition” (National Academies Press, Washington, D.C., 2011) in our AAALAC-accredited laboratory animal facility. In addition, the animal care and use protocol was reviewed and approved by the IACUC at Eurofins Panlabs Taiwan, Ltd.
(§4) The tumor volumes, body weights, mortality, and signs of overt toxicity were monitored and recorded twice weekly for 77 days. Tumor volume (mm^3) was calculated according to the formula for a prolate ellipsoid: length (mm)×[width (mm)]^2×0.5. Tumor growth inhibition was calculated as T/C (treatment/control)×100%. A T/C value≤42% was considered significant anti-tumor activity. Two-way ANOVA followed by Bonferroni test was used to ascertain the statistical significance of groups compared to respective vehicle control (*p<0.05).

[2] = Body weight, mortality and signs of overt toxicity in MCF-7 implanted female nude (nu/nu) mice; assay type: in vivo, mouse; settings: for Body Weight (g), individual animals No. 1-6: single animal; for Body Weight (g), individual mice: individual mice No. 1-6
Protocol: as §1, §2, §3, §4

## CC[C@H](C)[C@@H]([C@@H](CC(=O)N1CCC[C@H]1[C@H](OC)[C@@H](C)C(=O)N[C@H](C)[C@@H](O)c1ccccc1)OC)N(C)C(=O)[C@@H](NC(=O)[C@@H](NC)C(C)C)C(C)C [MMAE, monomethyl auristatin E] (H-[NMeV]V[Dil][Dolaproine]-X1)
[1]; 0.057 mg/kg × 6 IV once weekly, Day 49, mice No. 1-6
  Tumor Volume, individual mouse: 210 mm^3 and 270 mm^3 and 235 mm^3 and 301 mm^3 and 351 mm^3 and 264 mm^3
[1]; Day 53
  % T/C (tumor volume, treatment/control): 64%
  Tumor Volume, Mean: 290 mm^3
  Tumor Volume, individual animals No. 1-6: 216 mm^3 and 291 mm^3 and 268 mm^3 and 319 mm^3 and 373 mm^3 and 270 mm^3
[1]; Day 56
  % T/C (tumor volume, treatment/control): 65%
  Tumor Volume, Mean: 323 mm^3
  Tumor Volume, individual animals No. 1-6: 305 mm^3 and 249 mm^3 and 325 mm^3 and 329 mm^3 and 399 mm^3 and 328 mm^3
[1]; Day 60
  % T/C (tumor volume, treatment/control): 65%
  Tumor Volume, Mean: 357 mm^3
  Tumor Volume, individual animals No. 1-6: 312 mm^3 and 262 mm^3 and 383 mm^3 and 373 mm^3 and 453 mm^3 and 358 mm^3
[1]; Day 63
  % T/C (tumor volume, treatment/control): 71%
  Tumor Volume, Mean: 421 mm^3
  Tumor Volume, individual animals No. 1-6: 286 mm^3 and 422 mm^3 and 494 mm^3 and 418 mm^3 and 496 mm^3 and 412 mm^3
[1]; Day 67
  % T/C (tumor volume, treatment/control): 71%
  Tumor Volume, Mean: 469 mm^3
  Tumor Volume, individual animals No. 1-6: 307 mm^3 and 458 mm^3 and 598 mm^3 and 455 mm^3 and 505 mm^3 and 489 mm^3
[1]; Day 70
  % T/C (tumor volume, treatment/control): 73%
  Tumor Volume, Mean: 512 mm^3
  Tumor Volume, individual animals No. 1-6: 333 mm^3 and 591 mm^3 and 603 mm^3 and 493 mm^3 and 523 mm^3 and 528 mm^3
[1]; Day 74
  % T/C (tumor volume, treatment/control): 79%
  Tumor Volume, Mean: 584 mm^3
  Tumor Volume, individual animals No. 1-6: 365 mm^3 and 625 mm^3 and 681 mm^3 and 570 mm^3 and 568 mm^3 and 695 mm^3
[1]; Day 77
  % T/C (tumor volume, treatment/control): 83%
  Tumor Volume, Mean: 736 mm^3
  Tumor Volume, individual animals No. 1-6: 410 mm^3 and 922 mm^3 and 760 mm^3 and 632 mm^3 and 807 mm^3 and 887 mm^3
[2]; 0.057 mg/kg × 6, IV once weekly, Day 53
  Body Weight (g), individual animals No. 1-6: 26 g (3×) and 28 g and 22 g and 24 g
[2]; 0.057 mg/kg × 6, IV once weekly, Day 56
  Body Weight (g), individual animals No. 1-6: 24 g and 27 g and 26 g (2×) and 23 g and 25 g
[2]; 0.057 mg/kg × 6, IV once weekly, Day 60
  Body Weight (g), individual animals No. 1-6: 27 g (3×) and 28 g and 24 g and 26 g
[2]; 0.057 mg/kg × 6, IV once weekly, Day 63
  Body Weight (g), individual animals No. 1-6: 27 g (2×) and 26 g (2×) and 29 g and 24 g
[2]; 0.057 mg/kg × 6, IV once weekly, Day 67
  Body Weight (g), individual animals No. 1-6: 27 g (2×) and 28 g (2×) and 26 g and 25 g
[2]; 0.057 mg/kg × 6, IV once weekly, Day 70
  Body Weight (g), individual animals No. 1-6: 27 g and 28 g (2×) and 25 g (2×) and 26 g
[2]; 0.057 mg/kg × 6, IV once weekly, Day 74, group mean
  Body Weight (g), Mean: 26.7 g
[2]; 0.057 mg/kg × 6, IV once weekly, Day 74
  Body Weight (g), individual animals No. 1-6: 27 g (2×) and 29 g and 24 g and 25 g and 28 g
[2]; 0.057 mg/kg × 6, IV once weekly, Day 77
  Body Weight (g), individual animals No. 1-6: 28 g and 29 g and 23 g and 27 g (2×) and 24 g
[2]; 0.057 mg/kg × 6 IV once weekly, Day 1
  Body Weight (g), individual mice: 23 g (2×) and 22 g (2×) and 24 g and 21 g
[2]; 0.057 mg/kg × 6 IV once weekly, Day 1, mean of 6 mice
  Body Weight (g), Mean: 22.5 g
[2]; 0.057 mg/kg × 6 IV once weekly, Day 5
  Body Weight (g), individual mice: 24 g (3×) and 22 g (3×)
[2]; 0.057 mg/kg × 6 IV once weekly, Day 5, mean of 6 mice
  Body Weight (g), Mean: 23.0 g
[2]; 0.057 mg/kg × 6 IV once weekly, Day 8
  Body Weight (g), individual mice: 26 g and 23 g (2×) and 24 g (2×) and 25 g
[2]; 0.057 mg/kg × 6 IV once weekly, Day 8, mean of 6 mice
  Body Weight (g), Mean: 24.2 g
[2]; 0.057 mg/kg × 6 IV once weekly, Day 12
  Body Weight (g), individual mice: 26 g and 24 g (2×) and 25 g (3×)
[2]; 0.057 mg/kg × 6 IV once weekly, Day 15
  Body Weight (g), individual mice: 27 g and 25 g (4×) and 26 g
[2]; 0.057 mg/kg × 6 IV once weekly, Day 19
  Body Weight (g), individual mice: 26 g and 24 g and 25 g (4×)
[2]; 0.057 mg/kg × 6 IV once weekly, Day 19, mean of 6 mice
  Body Weight (g), Mean: 25.0 g
[2]; 0.057 mg/kg × 6 IV once weekly, Day 22
  Body Weight (g), individual mice: 27 g and 25 g (2×) and 24 g and 26 g (2×)
[2]; 0.057 mg/kg × 6 IV once weekly, Day 26
  Body Weight (g), individual mice: 27 g and 25 g (2×) and 24 g (2×) and 26 g
